Results reported in US20150266850A1 (E.I.DU PONT DE NEMOURS AND COMPANY, priority 2012, published 2015).
Marks after values point to notes of the source that are not given here.

Columns and labels:
Format in all cases: in vivo
[1] = tested on: Puccinia recondita f sp. tritici; test: Test B: wheat leaf rust, preventive spray on wheat seedlings, visual disease rating; conditions: 100 = 100% disease control
From the text: (§1) General protocol for preparing test suspensions for Tests A-E: the test compounds were first dissolved in acetone in an amount equal to 11% of the final volume and then suspended at the desired concentration (in ppm) in acetone and purified water (50/50 mix by volume) containing 250 ppm of the surfactant Trem® 014 (polyhydric alcohol esters). The resulting test suspensions were then used in Tests A-E. Spraying a 200 ppm test suspension to the point of run-off on the test plants was the equivalent of a rate of 800 g/ha.
The test suspension was sprayed to the point of run-off on wheat seedlings. The following day the seedlings were inoculated with a spore suspension of Puccinia recondita f sp. tritici (the causal agent of wheat leaf rust) and incubated in a saturated atmosphere at 20° C. for 24 h, and then moved to a growth chamber at 20° C. for 7 days, after which time disease ratings were visually made.
(§2) Results for Tests A-E are given in Table A. In the Table, a rating of 100 indicates 100% disease control and a rating of 0 indicates no disease control (relative to the controls). A dash (-) indicates no test results. All results are for 200 ppm except where followed by an “*”, which indicates 40 ppm or “**”, which indicates 50 ppm.

Septoria tritici = test: Test C: wheat leaf blotch, preventive spray on wheat seedlings, visual disease rating; conditions: 100 = 100% disease control
From the text: as §1
(§3) The test suspension was sprayed to the point of run-off on wheat seedlings. The following day the seedlings were inoculated with a spore suspension of Septoria tritici (the causal agent of wheat leaf blotch) and incubated in a saturated atmosphere at 24° C. for 48 h, and then moved to a growth chamber at 20° C. for 19 days, after which time disease ratings were visually made.
as §2

Septoria nodorum = test: Test D: wheat glume blotch, preventive spray on wheat seedlings, visual disease rating; conditions: 100 = 100% disease control; for pest or weed control at 50 ppm: Parastagonospora nodorum, 216 h
From the text: as §1
as §3, with “nodorum” for “tritici”, “glume” for “leaf”, “20°” for “24°”, “7” for “19”
as §2

[2] = tested on: Erysiphe graminis f. sp. tritici; test: Test A: wheat powdery mildew, preventive spray on wheat seedlings, visual disease rating; conditions: 100 = 100% disease control
From the text: as §1
The test suspension was sprayed to the point of run-off on wheat seedlings. The following day the seedlings were inoculated with a spore dust of Erysiphe graminis f. sp. tritici, (the causal agent of wheat powdery mildew) and incubated in a growth chamber at 20° C. for 8 days, after which time disease ratings were visually made.
as §2

[3] = Blumeria graminis, 192 h, 50 ppm (**)

Molecule | Test B disease control rating ([1]; 40 ppm (*)) | Test A disease control rating ([2]; 40 ppm (*)) | Test B disease control rating ([1]; 50 ppm (**)) | Test A disease control rating ([2]; 50 ppm (**)) | further results
COC(=O)NCc1cc(-n2ccc(-c3ccc(C(F)(F)F)cc3C)n2)ccc1C [Cmpd 100] | 100* % | 99* % |  |  | Test C disease control rating (Septoria tritici; 40 ppm (*)): 97* %; Test D disease control rating (Septoria nodorum; 40 ppm (*)): 100* %
COC(=O)NCc1cc(-n2ccc(-c3ccc(C(F)(F)F)cc3OC)n2)ccc1C [Cmpd 101] | 100* % | 99* % |  |  | Test C disease control rating (Septoria tritici; 40 ppm (*)): 94* %; Test D disease control rating (Septoria nodorum; 40 ppm (*)): 100* %
COC(=O)NCc1cc(-n2ccc(-c3ccc(Br)cc3C)n2)ccc1C [Cmpd 102] | 100* % | 99* % |  |  | Test C disease control rating (Septoria tritici; 40 ppm (*)): 98* %; Test D disease control rating (Septoria nodorum; 40 ppm (*)): 100* %
COC(=O)NCc1cc(-n2ncc(-c3ccc(OCC#N)cc3C)n2)ccc1C [Cmpd 105] | 99* % | 90* % |  |  | Test C disease control rating (Septoria tritici; 40 ppm (*)): 86* %; Test D disease control rating (Septoria nodorum; 40 ppm (*)): 100* %
CCOc1ccc(-n2ccc(-c3ccc(C)c(CNC(=O)OC)c3)n2)c(C)c1 [Cmpd 120] |  |  | 100** % | 100** % | Test C disease control rating (Septoria tritici; 50 ppm (**)): 99** %
COC(=O)NCc1cc(-c2ccn(-c3ccc(OC(C)C)cc3C)n2)ccc1C [Cmpd 121] |  |  | 100** % | 100** % | Test C disease control rating (Septoria tritici; 50 ppm (**)): 98** %
COC(=O)NCc1cc(-c2ccn(-c3ccc(OC4CCCCC4)cc3C)n2)ccc1C [Cmpd 122] | 91* % | 87* % |  |  | 
COC(=O)NCc1cc(-c2ccn(-c3ccc(C(C)(C)C)cc3C)n2)ccc1C [Cmpd 124] | 100* % | 99* % |  |  | 
CCCOc1ccc(-n2ccc(-c3ccc(C)c(CNC(=O)OC)c3)n2)c(C)c1 [Cmpd 125] | 100* % | 98* % |  |  | 
COCCOc1ccc(-n2ccc(-c3ccc(C)c(CNC(=O)OC)c3)n2)c(C)c1 [Cmpd 126] | 100* % | 87* % |  |  | 
COC(=O)NCc1cc(-n2ncc(-c3ccc(C(F)(F)F)cc3C(F)(F)F)n2)ccc1C [Cmpd 132] |  |  | 99** % | 100** % | Test D disease control rating (Septoria nodorum; 50 ppm (**)): 100** %
COC(=O)NCc1cc(-c2ccn(-c3ccc(C(C)C)cc3C)n2)ccc1C [Cmpd 133] |  |  | 100** % | 100** % | Test D disease control rating (Septoria nodorum; 50 ppm (**)): 100** %
COC(=O)NCc1cc(-c2ccn(-c3ccc(OCC(C)C)cc3C)n2)ccc1C [Cmpd 134] |  |  | 100** % | 99** % | Test D disease control rating (Septoria nodorum; 50 ppm (**)): 100** %
COC(=O)NCc1cc(-c2ccn(-c3ccc(OC(F)(F)F)cc3C)n2)ccc1C [Compound 123, methyl N-[[2-methyl-5-[1-[2-methyl-4-(trifluoromethoxy)phenyl]-1H-pyrazol-3-yl]phenyl]methyl]carbamate] |  |  |  |  | pest or weed control at 40 ppm ([1]; 192 h, 40 ppm (*)): 100%; pest or weed control at 40 ppm ([2]; Blumeria graminis, 192 h, 40 ppm (*)): 99%
COC(=O)NCc1cc(-n2ncc(-c3ccc(OC)nc3OC)[n+]2[O-])ccc1C [Compound 135] |  |  |  |  | pest or weed control at 50 ppm ([1]; 192 h, 50 ppm (**)): 100%; pest or weed control at 50 ppm (Septoria nodorum; 50 ppm (**)): 100%; pest or weed control at 50 ppm [2, 3]: 99%
COC(=O)NCc1cc(-n2ncc(-c3ccc(OC)nc3OC)n2)ccc1C [Compound 136, methyl N-[[5-[4-(2,6-dimethoxy-3-pyridinyl)-2H-1,2,3-triazol-2-yl]-2-methylphenyl]methyl]carbamate] |  |  |  |  | pest or weed control at 50 ppm ([1]; 192 h, 50 ppm (**)): 100%; pest or weed control at 50 ppm (Septoria nodorum; 50 ppm (**)): 100%; pest or weed control at 50 ppm [2, 3]: 99%
methyl N-[[5-[1-(2,6-dimethoxy-3-pyridinyl)-1H-pyrazol-3-yl]-2-methylphenyl]-methyl]carbamate [Compound 116] |  |  | 100** % | 100** % | Test C disease control rating (Septoria tritici; 50 ppm (**)): 99** %
